Experimental data published in paper PMC10382351, “In vivo evaluation of a novel ^18F-labeled PET radioligand for translocator protein 18 kDa (TSPO) in monkey brain” (European Journal of Nuclear Medicine and Molecular Imaging, 2023).
“And” between values parts separate entries of the source, which are not always exact repeats. Identical values can stand only once.

Columns and labels:
[1] = Parent radioactivity and radiometabolite analysis in arterial plasma (HPLC); type: in vivo, rhesus monkey; details: for Peak parent concentration in arterial plasma: n = 3
Description: (§1) Arterial blood sampling was performed in all scans to determine plasma parent concentration of the radioligand. Seventeen blood samples were drawn from an implanted port in the femoral artery of the monkeys during the 180-min PET scans at 15-s intervals for the first two minutes, followed by samples at 3, 5, 10, 30, 60, 90, 120, 150, and 180 min (volumes varied from 1.0 to 5.0 mL). Radioactivity in plasma was quantified and corrected for radiometabolites using high-performance liquid chromatography (HPLC). The separation was performed on an X-Terra C18 column (10 µm, 7.8 × 300 mm) with an isocratic mobile phase composed of methanol: water: triethylamine (77.5:22.5:0.1 by vol.) at a flow rate of 5 mL/min. The plasma free fraction (fP) was measured by ultrafiltration, as previously described. A standard fP was measured in a frozen aliquot of pooled plasma in parallel with the experimental blood sample, and as internal standard it was then used to normalize the measured fP of the blood samples.

[2] = Plasma free fraction (fP) by ultrafiltration; type: in vitro ADME, rhesus monkey; details: for Plasma free fraction fP / fraction unbound: n = 3; for fraction unbound: male, rhesus monkey, plasma
Description: as §1

TSPO = target: T1, TSPO (Mus musculus, UniProt P50637); test: PET study in mice at baseline and after PK11195; type: in vivo
T1 construct: from tissue; host or cells: living mice, whole-brain ROI, also lung (in vivo PET)
Description: Imaging experiments were performed on a microPET Focus 120 camera (Siemens Medical Solution; Knoxville, TN). Mice were anesthetized with 1.5% isoflurane in oxygen at a flow rate of 1 L/min. [^18F]SF51 (150 µL; 2.9 ± 0.6 MBq) was injected intravenously through the tail vein of each mouse. Baseline scans were obtained in 12 mice, and another eight mice were imaged after pre-administration of 5 mg/kg PK11195. Scans were acquired for 120 min. Data were histogrammed into 24 time frames (6 × 20, 5 × 60, 4 × 120, 3 × 300, 3 × 600 and 3 × 1200 s) and reconstructed using Fourier rebinning plus a two-dimensional filtered back projection. No scatter or attenuation corrections were applied. PET images were analyzed using PMOD with a single ROI of the whole brain.

[3] = Ex vivo radioanalysis of mouse brain and plasma 120 min after injection; type: in vivo, mice
Description: An ex vivo experiment was performed in another mouse 120 min after [^18F]SF51 injection. Anticoagulated blood was withdrawn from the myocardium, and the brain was extracted. The harvested brain was weighed and immediately underwent radioanalysis. The plasma was separated by centrifugation, and the radioactivity in both whole blood and plasma was measured as previously described.

[4] = representative radiochromatogram, baseline study, at 30 minutes
[5] = mouse, after blockade with PK11195

For CC[C@@H](C)N(C)C(=O)c1nc(-c2cccc([18F])c2)c2ccccc2n1 [[^18F]SF51], the “Average percentage of parent in plasma” value ([1]; at 120 min, roughly the same until 180 min, HPLC) was 25%, the “Peak parent concentration in arterial plasma” value ([1]; baseline) was 4.1 ± 0.4 SUV and the “Peak parent concentration in arterial plasma” value ([1]; blocked with PK11195 5 mg/kg) was 7.5 ± 1.7 SUV. The “Number of radiometabolites in plasma (more hydrophilic than the parent)” value ([1]; monkey arterial plasma, HPLC) was “At least five”, the “Parent in arterial plasma” value [1, 4] was 36% and the “Total radiometabolites in arterial plasma” value [1, 4] was 64%. For the same compound, the “Plasma free fraction fP” value ([2]; baseline scans) was 6 ± 1%, the “Plasma free fraction fP” value ([2]; blocked scans (PK11195)) was 19 ± 4% and the fraction unbound ([2]; baseline scans) was 0.064 ± 0.007. For the same compound, the fraction unbound ([2]; blocked scans (PK11195)) was 0.188 ± 0.036, the fPblock ([2]; one monkey, after PBR28 pre-blockade (5 mg/kg)) was 19.3% and the fPbase ([2]; one monkey, baseline scan of the PBR28 experiment) was 5.7%. The “fP of the internal standard (frozen aliquot of pooled plasma)” value ([2]; six PET scans) was 2.4 to 3.8%, the “Blockade of radioligand in mouse brain” value (TSPO; after i.v. 5 mg/kg PK11195) was “about 80%” and the Radioactivity in bone (TSPO; mouse) was “No significant increase in radioactivity”. The “Uptake in lung (blockable)” value (TSPO; mouse) was over 2 SUV, the Peak brain uptake (TSPO; [5]) was ~ 2.5 SUV and the “Time of peak brain uptake” value (TSPO; [5]) was “three”. The Peak brain uptake (TSPO; mouse, baseline) was ~ 0.8 SUV, the “Time of peak brain uptake” value (TSPO; mouse, baseline) was “around 15 min” and the “Brain activity after blockade relative to baseline” value (TSPO; mouse, last 80 min of scanning, PK11195) was 25 % of that at baseline. The “Parent radioligand as share of radioactivity in plasma” value [3] was 9.1% and the “Parent radioligand as share of radioactivity in the brain” value [3] was 96% and 96.4%.
